Source: US9932300B2, “N,N′-diarylurea compounds and N,N′-diarylthiourea compounds as inhibitors of translation initiation” (President and Fellows of Harvard College, priority 2009, dated 2018)
“Also recorded” adds a separate entry of the source.

Columns and labels:
[1] = system: eIF2-GTP-Met-tRNAi ternary complex; experiment: Ternary complex activity (cell line not stated); type: cell-based
[2] = system: eIF2-GTP-Met-tRNAi ternary complex; experiment: Ternary complex / ATF-4 dual luciferase assay in human cancer cell lines co-transfected with tTA and pBISA-DL(ATF-4) (CRL-2351, PC-3, CRL-2813); type: cell-based; conditions: CRL-2351 cell line
Description: FIGS. 8A-8D depict that N,N′-diarylureas reduce the availability of the eIF2-GTP-Met-tRNAi ternary complex in human cancer cells. A-C) PC-3, CR-L2351, and CRL-2813 human cancer cell lines were co-transfected with pBISA-DL^(ATF-4) and ptTA plasmids. One day post-transfection, the cells were treated with the indicated concentrations of N,N′-diarylureas. Firefly/renilla ratio was determined by DLR assay 8 hours after treatment. D) PC-3, CR-L2351, and CRL-2813 human cancer cell lines were treated with the indicated concentrations of N,N′-diarylureas four 8 hours, and expression of endogenous CHOP mRNA was determined by real-time PCR.
(§1) For example, reducing amount of the ternary complex increases translation of ATF-4, which results in elevated expression of CHOP mRNA and protein. Therefore, expression of endogenous CHOP mRNA and CHOP protein in KLN-tTA/pBISA-DL^(ATF-4) cells were utilized as secondary assays to validate N,N′-diarylurea compounds as modifiers of the eIF2⋅GTP⋅Met-tRNAi ternary complex. […] To rule out the possibility that the activity of N,N′-diarylurea compounds was confined to a single cell type, the effects of these compounds on the ternary complex assay and the expression of CHOP mRNA was assayed in CRL-2351, PC-3, CRL-2813 human breast, prostate, and melanoma cancer cell lines respectively. For the reporter gene assay, the three human cell lines were co-transfected with tTA expression vector and the pBISA-DL^(ATF-4) dual luciferase expression vector shown in FIG. 6. […] The expression of CHOP mRNA was assayed by real time PCR in the same cell lines treated with 5 or 20 μM of each compound. […]
Stable and transient transfection: Cells were seeded at the density of 10^5 in 60-mm (stable transfection) or 10^4 cells per well of 96-well plate (transient transfection) plates and transfected one day later using the Qiagen Transfectamine transfection kit. For selection of stable cell lines, transfected cells were transferred to 100-mm plates and selected with appropriate antibiotics.
Dual luciferase assay: Cells or minced tumors expressing firefly and renilla luciferases were lysed and the extracts assayed with a glow type dual luciferase assay kit, per manufacturer's instruction (Promega Inc., Madison, Wis.).

[3] = Solubility in solvents during purification; type: physicochemical; conditions: crude product
Description: Because it could not be purified, this compound was removed from the structure-activity relationship (SAR) study.
As another non-limiting example, 3,4-dichlorophenylisocyanate (250 mg, 1.330 mmol) and 2-amino-4-hydroxy-6-methylpyrimidine (166 mg, 1.330 mmol) were used following the general procedure E to synthesize 28.

[4] = system: eIF2-GTP-Met-tRNAi ternary complex; experiment: Ternary complex assay (dual luciferase, firefly/renilla ratio) in stable KLN-tTA/pBISA-DL(ATF-4) cells; HTS and hit confirmation; type: cell-based, mouse; conditions: designation in figure legend
[5] = system: PC-3 human prostate cancer cells; experiment: Cell proliferation, SRB assay, PC-3; type: cell-based; conditions: read-out: IC50 (concentration that inhibits cell proliferation by 50%)
Description: Reduced availability of the ternary complex causes inhibition of translation initiation and thereby of cell proliferation. […] The effects of N,N′-diarlyureas on the proliferation KLN mouse squamous cell carcinoma, CRL-2351 human breast, CRL-2813 human melanoma, A549 human lung and PC-3 human prostate cancer cell lines were tested.
To determine if N,N′-diarylureas inhibit cell proliferation by reducing the availability of the ternary complex, the effect of N,N′-diarylureas on proliferation of previously described transgenic PC-3 human prostate cancer cell lines expressing either the non-phosphorylatable eIF2α-S51A mutant or the eIF2α-WT was studied. […] Reducing the expression of HRI, the eIF2α kinase that mediates N,N′-diarlyurea induced phosphorylation of eIF2α similarly abrogates the effect of these agents on cell proliferation (FIGS. 15C and 15D).
Cell Growth Assay: Cell growth was measured by the SRB assay.

CHOP = experiment: Expression of endogenous CHOP mRNA (real time PCR) and CHOP protein (Western blot); type: cell-based, mouse and human; conditions: siRNA against HRI
Source text: as §1
Real time PCR: For real time PCR, total RNA was extracted with TaqMan Gene Expression Cells-to-Ct™ Kit (Applied Biosystems, Branchburg, N.J.) according to manufacturer's protocol. […] To calibrate the results, all the transcripts quantities were normalized to 18S rRNA (was 18S ribosomal RNA-like mRNA in mouse). […]

HRI = experiment: Activation of HRI in cell-free lysates (phosphorylation of eIF2α, Western blot); type: biochemical, rabbit and human; conditions: lysates of CRL-2813 cells or heme-supplemented rabbit reticulocytes, 30 minutes at 37° C.
Description: FIGS. 14A and 14B depict that N,N′-diarylurea compounds activate HRI in cell free lysates. A and B) Heme supplemented rabbit reticulocyte (a) or in-house prepared human melanoma cancer cell lysates (b) were incubated with the indicated concentration of compound 1781 for 30 minutes at 37° C. and phosphorylation of eIF2α was determined by Western blot analysis.
Compound #1781 was added to lysates of CRL-2813 cells or heme-supplemented rabbit reticulocytes and phosphorylation of eIF2α by Western blot was determined.

[6] = In vivo toxicity in female nude mice (body weight, food consumption, necropsy)
Description: Five female nude mice each were treated with 200 mg/kg, 100 mg/kg #1781 in 15 μl DMSO or 15 μl DMSO daily for seven days. Mice were observed daily for signs of toxicity and weighed every other day for total of 15 days and then necropsy was performed. The average body of each group is plotted against the time.
To study toxicity effects, mice were treated with various doses of compound #1781 or vehicle.

[7] = system: eIF2-GTP-Met-tRNAi ternary complex; experiment: Ternary complex assay (dual luciferase, firefly/renilla ratio) in stable KLN-tTA/pBISA-DL(ATF-4) cells; HTS and hit confirmation; type: cell-based, mouse; conditions: for Induction of F-luc/R-luc ratio after knockdown of HRI: siRNA against HRI

Compound: COc1cc(N(C)C(=O)Nc2cc(C(F)(F)F)cc(C(F)(F)F)c2)ccc1C
- Maximum effect (Emax, fold over control) [1]: Inactive

Compound: Cc1ccc(N(C)C(=O)Nc2cc(C(F)(F)F)cc(C(F)(F)F)c2)cc1O
- Maximum effect (Emax, fold over control) [1]: 8.5 fold over control
- Maximum effective dose Cmax [1]: 80 µM

Compound: O=C(Nc1cc(C(F)(F)F)cc(C(F)(F)F)c1)Nc1ncccc1O [Compound 28]
- ATF-4 Cmax (concentration corresponding to the maximal activity) [2]: 40 µM
- Solubility in solvents [3]: not soluble in any solvent; also recorded: wasn't soluble in any solvent tested

Compound: O=C(Nc1ccc(Cl)c(Cl)c1)Nc1cc([N+](=O)[O-])ccc1Cl [Compound 1527]
- Active or inactive N,N′-diarylurea (ternary complex assay) [4]: inactive
- IC50 [5]: 8.3 µM

Compound: O=C(Nc1ccc(Cl)c(Cl)c1)Nc1ccc2nnsc2c1 [Compound 1781]
- Induction of CHOP mRNA after knockdown of HRI (CHOP): abrogated induction of CHOP mRNA
- Phosphorylation of eIF2α in cell lysates (HRI): caused phosphorylation of eIF2α in cell lysates in a dose dependent manner
- Apparent in vivo toxicity ([6]; 200 mg/kg or 100 mg/kg daily for seven days, female nude mice, observed 15 days): no apparent in vivo toxicity
- Effect on weight gain or food consumption ([6]; seven consecutive day administration, up to 200 mg/kg, mice): no adverse effect on weight gain or food consumption
- Induction of F-luc/R-luc ratio after knockdown of HRI [7]: significantly abrogated
- Induction of F-luc/R-luc ratio after knockdown of HRI ([7]; listed as 1181): almost completely abrogated
- Induction of F-luc/R-luc ratio after knockdown of PKR, PERK or GCN2 ([7]; siRNA against PKR, PERK, GCN2, individually or combined): no effect
